Laboratory results reported in PMC10321483 (Chemical Science, 2023).
Several values for one entry are separate records, joined by “and”; a condition that tells them apart may be missing. Equal entries are not always repeated. Where two headings read alike, the source gives them in different places.

Tests used:
BlaC = biological target: T1, BlaC (Mycobacterium tuberculosis, UniProt P9WKD3); assay: BlaC fluorogenic inhibition assay with FC5 (dose-response); assay type: biochemical; details: Table S5 HTS hits, 30 minute inhibitor pre-incubation, two independent repeats
T1 construct: made in house; host or cells: E. coli
T1 sequence (P9WKD3 35-307): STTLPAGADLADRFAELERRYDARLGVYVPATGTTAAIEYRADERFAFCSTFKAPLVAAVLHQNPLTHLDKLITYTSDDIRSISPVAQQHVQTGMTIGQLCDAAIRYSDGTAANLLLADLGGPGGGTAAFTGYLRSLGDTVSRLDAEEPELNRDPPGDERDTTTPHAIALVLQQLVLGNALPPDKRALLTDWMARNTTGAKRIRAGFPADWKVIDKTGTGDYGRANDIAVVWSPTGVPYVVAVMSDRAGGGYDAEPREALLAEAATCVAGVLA
Procedure: Two types of controls were used. […] In control 2, the BlaC mixture was substituted with the assay buffer. This mixture was incubated for 30 minutes at room temperature without shaking. […] Data were analysed using ActivityBase (IDBS).

[1] = Intrinsic thiol reactivity (kchem), competition with probe 2 for L-glutathione; assay type: physicochemical; details: for kchem (apparent intrinsic thiol reactivity): Table S5, L-glutathione 500 nM, probe 2 10 µM, 15 h; for log(kchem) probe 2 (mean ± SD): Table S11 assay validation
LdtMt2 [2] = biological target: T2, LdtMt2 (Mycobacterium tuberculosis, UniProt I6Y9J2); assay: biochemical; assay type: biochemical; design: made in house; host or cells: E. coli
T2 sequence (I6Y9J2 56-408): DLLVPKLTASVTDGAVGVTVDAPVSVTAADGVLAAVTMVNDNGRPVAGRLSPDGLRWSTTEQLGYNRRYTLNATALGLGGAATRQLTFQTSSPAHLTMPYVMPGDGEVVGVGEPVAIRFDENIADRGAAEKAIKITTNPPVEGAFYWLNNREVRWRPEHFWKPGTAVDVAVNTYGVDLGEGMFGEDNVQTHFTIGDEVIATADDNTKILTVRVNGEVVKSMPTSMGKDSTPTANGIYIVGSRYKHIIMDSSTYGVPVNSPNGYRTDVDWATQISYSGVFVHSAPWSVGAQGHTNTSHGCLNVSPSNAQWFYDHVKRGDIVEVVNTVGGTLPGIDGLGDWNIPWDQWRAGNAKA

LdtMt2 [3] = biological target: T2, LdtMt2; assay: biochemical; assay type: binding; design: made in house; host or cells: E. coli
Procedure: LdtMt2 (5 μM) was incubated with the inhibitor (500 μM) in assay buffer (50 mM tris pH 7.5) for 30 minutes at room temperature in 96-well white PCR plates (25 μL final volume, Starlab). SYPRO Orange (final concentration 6×, according to manufacturer's definition, Invitrogen) was then added and the plate was sealed using a transparent plastic film (Polyolefin StarSeal, Starlab). Fluorescence was monitored (with λex = 492 nm and λem = 610 nm) using a CFX96 Touch Real-Time PCR Detection System (Bio-Rad), while the temperature was increased from 20 to 95 °C in increments of 0.2 °C. Melting temperatures (Tms) were determined using the CFX Maestro Software (Bio-Rad).

LdtMt2 [4] = biological target: T2, LdtMt2; assay: Jump dilution assay (reversibility, koff); assay type: biochemical; design: made in house; host or cells: E. coli; details: read-out: koff (off rate of complex with LdtMt2)
Procedure: LdtMt2 (10 μM final concentration) was incubated with the inhibitor (100 μM final concentration) in the assay buffer (50 mM HEPES, pH 7.2, 0.01% (v/v) Triton X-100) for 2 hours at room temperature, then serially diluted 1000× with assay buffer (final LdtMt2 concentration 10 nM). 20 μL of the diluted mixture was added to a black polystyrene, flat-bottomed 384-well μ-clear plate (clear bottomed, Greiner Bio-One, part number 781096). Probe 2 (final concentration 15 μM) was added using a MultiDrop Combi dispenser (ThermoFisher Scientific). Fluorescence was measured using a PHERAstar plate reader (BMG Labtech) with λex = 480 nm and λem = 520 nm. Readings were taken every 15 s for a period of 5 minutes, using bottom optic measurements. The off rate (koff) was determined using eqn (7).7 [drawing 3] where, P = formed product; Vs = velocity of no-inhibitor control; V0 = velocity of no-enzyme control, and P0 = initial fluorescence.
The half-life of the enzyme–inhibitor complex (t1/2) was calculated using eqn (8).8 [drawing 4]

[5] = design: method as in earlier work; details: Table S11; reported values; ref 6 (Sameshima et al., 2017); cited from earlier work
[6] = system: M. tuberculosis (strain H37Rv) growth in THP1 cells; assay: Intracellular assay: Mtb H37Rv-Luc in THP-1 macrophages; assay type: cell-based, Mycobacterium tuberculosis; details: 5 days, extrapolated from dose-response curve
[7] = system: M. tuberculosis (strain H37Rv); assay: Extracellular assay: M. tuberculosis H37Rv in medium under replicating conditions; assay type: cell-based, Mycobacterium tuberculosis
HepG2 cells = assay: HepG2 cytotoxicity assay (CellTiter Glo); assay type: cell-based; details: 48 h, ATP read-out
Procedure: Solutions of the test compounds (250 nL per well; 11 serial dilutions of 1/3 with starting concentration 100 μM) were dispensed in tissue-culture treated black clear-bottomed 384-well plates (Greiner, cat. no. 781091) with an Echo 555 instrument. 25 μL of HepG2 (ATCC HB-8065) cells (∼3000 cells per well) grown to confluency in Eagle's Minimal Essential Medium (MEM) supplemented with 10% (v/v) heat-inactivated FBS, 1% (v/v) non-essential amino acids (NEAA), and 1% (v/v) penicillin/streptomycin were added to each well. Plates were incubated at 37 °C with 20% O2 and 5% CO2 for 48 h. The plates were then equilibrated to room temperature. ATP levels, measured with CellTiter Glo kit (Promega), were used as cell viability read-out. 25 μL of CellTiter Glo substrate dissolved in the buffer was added to each well. Plates were incubated at room temperature for 10 min and read on ViewLux (PerkinElmer) […].

LdtMt2 [8] = biological target: T2, LdtMt2; details: 1 μM LdtMt2, denaturing acidic conditions
Procedure: LdtMt2 (1 μM) in buffer (50 mM tris, pH 7.5) was incubated with an inhibitor (100 μM, 10 μM, or 2 μM, as indicated). Mass spectrometry was performed using a RapidFire200 integrated autosampler/solid phase extraction (SPE) system (Agilent Technologies) coupled to an API40000 triple quadrupole mass spectrometer (Applied Biosystems) operating in the positive ionisation mode. Samples were taken after the specified incubation periods, loaded onto a C4 cartridge (Agilent Technologies), and eluted with organic phase (85% (v/v) acetonitrile, 15% (v/v) water, 0.1% (v/v) formic acid). The cartridge was washed with both the organic phase and an aqueous phase (water, 0.1% (v/v) formic acid). Data were analysed using MassHunter Qualitative Analysis B.07.00 (Agilent Technologies). Spectra were deconvoluted using the maximum entropy algorithm in the same programme.

LdtMt2 [9] = biological target: T2, LdtMt2; assay: Rate constant of covalent target inactivation (kinact/KI), endpoint competition assay with probe 2; assay type: biochemical; design: made in house; host or cells: E. coli; details: 100 nM LdtMt2, 10 µM probe 2, 3 h incubation; n=4

Compound	pIC50 BlaC (BlaC)	MIC50 intracellular [6]	MIC50 [7]	IC50 (HepG2 cells)	LE (ligand efficiency) (LdtMt2 [2])	ΔTm: difference in melting point of LdtMt2 relative to unreacted LdtMt2 (43.8 °C) (LdtMt2 [3])	Tm: melting point of LdtMt2 after pre-incubation with the compound (LdtMt2 [3]; pH 7.5, in °C (unit assumed))	further results
CCOc1ccc(CN2C(=O)C(=O)c3cc(Br)cc(C)c32)cc1OC [Compound 16]								IC50 (BlaC; pIC50 BlaC): 36.3 µM; kchem (apparent intrinsic thiol reactivity) [1]: < 0.08 M⁻¹ s⁻¹; LE (ligand efficiency) (LdtMt2 [2]; Table S5, for LdtMt2): 0.45; IC50 (LdtMt2 [2]; Table S5 HTS hits, 30 minute inhibitor pre-incubation, two independent repeats, read-out: pIC50 LdtMt2 (converted)): 0.178 µM; IC50 (LdtMt2 [2]; Table S8, inhibitor pre-incubation time 0 min, read-out: pIC50, 0 min (converted)): 0.302 µM; IC50 (LdtMt2 [2]; Table S8, inhibitor pre-incubation time 120 min, read-out: pIC50, 120 min (converted)): 0.407 µM; IC50 (LdtMt2 [2]; pIC50, 10 min, Table S8, inhibitor pre-incubation time 10 min): 0.363 µM; IC50 (LdtMt2 [2]; pIC50, 60 min, Table S8, inhibitor pre-incubation time 60 min): 0.372 µM; Tm: melting point of LdtMt2 after pre-incubation with the compound (LdtMt2 [3]; 5 µM LdtMt2, 500 µM inhibitor, SYPRO Orange, 50 mM Tris pH 7.5): 46.8 ± 0.00 °C; ΔTm at 500 µM (LdtMt2 [3]; read-out: ΔTm: difference in melting point of LdtMt2 relative to unreacted LdtMt2 (43.8 °C)): 3 °C; koff (LdtMt2 [4]): 0.0286 s⁻¹
O=C(O)C=CC(=O)c1ccc(Br)cc1 [iii]								log(kchem) probe 2 (mean ± SD) [1]: 0.93 ± 0.02; log(kchem) o-maleimide BODIPY (mean ± SD) [5]: 1.34 ± 0.10
O=C1C(=O)N(Cc2cccc3ccccc23)c2ccc(Br)cc21 [Compound 18]	< 4.0	35.5 ± 5.4 µM and < 50 µM	> 100 µM	42.3 ± 3.4 µM	0.49	+2.4	46.2 ± 0.00	kchem (apparent intrinsic thiol reactivity) [1]: < 0.08 M⁻¹ s⁻¹; covalent modification of LdtMt2 (adduct observed by SPE-MS) (LdtMt2 [8]): not observed to modify LdtMt2; pIC50, 0 min (LdtMt2 [2]): 6.39 ± 0.07; pIC50, 10 min (LdtMt2 [2]): 6.24 ± 0.23; pIC50, 60 min (LdtMt2 [2]): 6.49 ± 0.35; pIC50, 120 min (LdtMt2 [2]): 6.56 ± 0.35
N#C[s+]1c2ccccc2c2ccccc21.O=S(=O)([O-])C(F)(F)F [Compound 45, reference compound]								covalent modification of LdtMt2 (adduct observed by SPE-MS) (LdtMt2 [8]): did not modify LdtMt2
O=C(OCN1C(=O)C=CC1=O)c1ccccc1 [Compound 7]		39.8 ± 0.0 µM and < 50 µM	> 100 µM	3.9 ± 0.88 µM	0.66			kinact/KI (LdtMt2 [9]): 156 ± 5.1 M⁻¹ s⁻¹; Tm: melting point of LdtMt2 after pre-incubation with the compound (LdtMt2 [3]; pH 7.5): 43.1 ± 0.09 °C
N#Cn1c(-c2ccncc2)nc2ccc(C(=O)c3ccccc3)cc21 [Compound 36]	< 4.0	29.5 ± 0.0 µM and < 50 µM	> 100 µM	32.7 ± 0.38 µM	0.45	-3.0	40.8 ± 0.59	kinact/KI (LdtMt2 [9]): 51.0 ± 3.4 M⁻¹ s⁻¹; lowered the melting temperature of LdtMt2 by (LdtMt2 [3]): 3.0 °C
O=C1C=CC(=O)N1c1ccc(Oc2ccccc2)c(Cl)c1 [Compound 5]		25.7 ± 0.30 µM and < 50 µM	> 100 µM	2.51 ± 0.12 µM	0.53	-0.2 °C		kinact/KI (LdtMt2 [9]): 116 ± 6.2 M⁻¹ s⁻¹; Tm: melting point of LdtMt2 after pre-incubation with the compound (LdtMt2 [3]; pH 7.5): 43.6 ± 0.16 °C
NC(=O)OCC1=C(C(=O)O)N2C(=O)C(NC(=O)C(=CS(=O)(=O)CCc3ccc(O)c(O)c3)c3csc(N)n3)C2SC1 (stereo not shown) [Compound 20]	7.72	38.9 ± 1.8 µM and < 50 µM	> 100 µM	> 100 µM	0.28	-1.1	42.7 ± 0.25	
CCOc1ccc(C(=O)C=CC(=O)O)cc1OCC [i]								log(kchem) probe 2 (mean ± SD) [1]: 0.65 ± 0.06; log(kchem) o-maleimide BODIPY (mean ± SD) [5]: 0.86 ± 0.09
CC(N)C(=O)NC1CCN(c2ccc(N3CCCC3)cc2C#N)C1 (stereo not shown) [Compound 39]	< 4.0	28.8 ± 0.0 µM and < 50 µM	> 100 µM	> 100 µM	0.47	-0.7	43.1 ± 0.10	
Cc1ccc(C(=O)C=CC(=O)O)cc1C [ii]								log(kchem) probe 2 (mean ± SD) [1]: 0.76 ± 0.03; log(kchem) o-maleimide BODIPY (mean ± SD) [5]: 1.07 ± 0.09
